From patent US20070059720A9 (priority 2004, published 2007)

What was measured:
MCF-7-MKP3 cells = assay: Anchorage-independent soft agar colony formation, MKP3-overexpressing MCF-7 transfectants; assay type: cell-based, human
Description: MCF-7 cells were originally obtained from Dr. Benita Katzenellebogen, but have been maintained in the inventors' laboratory for over 10 years (Fuqua et al., 2000). MCF-7 cells were maintained in Minimal Essential Medium (MEM, InVitrogen) supplemented with 5% fetal bovine serum (Summit Biotechnology, Fort Collins, Colo.), 200 U/ml penicillin, and 200 μg/ml streptomycin. Cells were incubated at 37° C. in 5% CO2. To generate MCF-7 cells stably overexpressing MKP3, 5 μg of the plasmid pcDNA3-MKP3-V5 (Furukawa et al., 2003) or empty vector (pcDNA3-His-V5, InVitrogen), were transfected into the cells using Fugene 6 reagent Roche Clinical Laboratories, Indianapolis, Ind.) in 100 mm tissue culture dishes following the manufacturer's protocol. Stable clones overexpressing MKP3 were selected as described (Fuqua et al., 2000), and positive clones were identified using immunoblot analysis with an anti-V5 antibody (1:5000 dilution)
(§1) Cells were starved for 2 days in PRF MEM (InVitrogen) supplemented with 5% fetal bovine serum (FBS, Summit Biotechnology, Fort Collins, Colo.), 6 ng/ml insulin, 200 units/ml penicillin, and 200 μg/ml streptomycin. Soft agar assays were performed in sixwell plates. Into each well, 1.5 ml of prewarmed (50° C.) 0.7% SeaPlaque agarose (FMC, Rockland, Me.) was added and dissolved in PRF MEM supplemented with 5% charcoal stripped FBS (Summit, Fort Collins, Colo.) to serve as the bottom layer, and allowed to solidify at 4° C. until to use. 0.5×10^4 cells as a single cell suspension were suspended in prewarmed (37° C.) of the same media, 4 ml of 0.5% SeaPlaque agarose was then added, and this suspension then plated as the top layer by adding it dropwise to the solidified bottom layer plates. Plates were cooled for 2 hours, and then transferred to a 37° C. humidified incubator. Two days after plating, media containing control vehicle, 1 nM estradiol, 100 nM 4-OH-Tam, 100 nM OHT plus 10 nM ICI, or 100 nM OHT plus 20 nM […] was added to the top cell layer, and the appropriate media was replaced every two days. After 14 days, the colonies were fixed, and the colony number of colonies >50 cells from quadruplicate assays were then counted. The data shown is the mean colony number of four plates, and is representative of two independent experiments.
(§2) In pancreatic cells, ectopic expression of MKP3 is reported to result in a suppression of cell growth (Fuqua et al., 2003). Thus, the growth characteristics of the MCF-7 stable MKP3 transfectants under different hormonal conditions were investigated using anchorageindependent soft agar assay (FIG. 4B).

MKP3 = target: T1, MKP3 (Homo sapiens, UniProt Q16828); assay: Phosphatase assay with pNPP on V5 immunoprecipitates of treated MKP3 cells; assay type: biochemical; conditions: MKP3 transfectants treated 2 hours; relative to control-treated (intermediate)
T1 construct: expressed in transfected cells
T1 sequence (Q16828 1-381): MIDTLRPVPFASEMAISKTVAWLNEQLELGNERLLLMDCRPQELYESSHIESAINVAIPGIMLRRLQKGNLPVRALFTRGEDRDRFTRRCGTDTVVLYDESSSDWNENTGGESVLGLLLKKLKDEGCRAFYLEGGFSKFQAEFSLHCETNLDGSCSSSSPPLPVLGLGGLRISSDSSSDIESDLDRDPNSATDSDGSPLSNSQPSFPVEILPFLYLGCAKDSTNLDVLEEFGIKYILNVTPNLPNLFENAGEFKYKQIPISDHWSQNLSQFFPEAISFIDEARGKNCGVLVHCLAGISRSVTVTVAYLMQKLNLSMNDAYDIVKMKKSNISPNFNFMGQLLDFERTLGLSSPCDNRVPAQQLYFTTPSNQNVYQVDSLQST
Description: MKP3-overexpressing cells and control vector transfected cells were treated as described above with ethanol, E2, or 4-OH-Tam, and lysed in buffer B containing 20 mM Tris-HCl (pH 7.0), 150 mM NaCl, 1% Triton X-100, 0.25 M sucrose, 1 mM EDTA, 1 mM EGTA, 0.1% β-mercaptoethanol, 1 mM PMSF, and 1 μg/ml leupeptin. The cell lysates were cleared and the protein concentrations were determined as detailed above. 300 μg of cell lysate at 1 μg/μl was immunoprecipitated by the addition of 1 μg anti-V5 antiserum, and 20 μl 50% protein G slurry. […] The reactions were then quenched by the addition of 20 μl 5N NaOH, and pNPP hydrolysis was measured at 405 nm. […] The amount of product p-nitrophenol was determined from the absorbance at 405 nm. […]
The observed changes in pMAPK levels in MKP3 overexpressing cells was further characterized. […] Using the artificial substrate pNPP to measure endogenous phosphatase activity, there was an inverse relationship between measured phosphatase activity and pMAPK levels in the MKP3 transfectants. […] There were no observed changes in the ability of MKP3 to bind to MAPK, as measured by co-immunoprecipitation and immunoblot analysis (FIG. 5H). When the levels of MKP3-bound ERK2 were compared between the different hormonal treatments, no differences were detected (C, E, T, IP:V5 lanes). […]

[1] = tested on: MCF-7 vector control cells; assay: Anchorage-independent soft agar colony formation, MCF-7 vector control cells; assay type: cell-based, human; conditions: MCF-7 vector control cells; 1 nM estradiol or 100 nM 4-OH-Tam; 14 days
Description: as §1, §2

| Structure (SMILES) | estrogen-induced colony formation of MCF-7-MKP3 clones (MCF-7-MKP3 cells; 1 nM estradiol, versus vector control cells) | MKP3 phosphatase activity (pNPP hydrolysis) (MKP3) | number of colonies in soft agar [1] | increase in number of soft agar colonies formed in the presence of Tam, MKP3-overexpressing transfectants compared to vector control cells (MCF-7-MKP3 cells; 100 nM 4-OH-Tam, two MKP3 clones, P<0.05) |
| --- | --- | --- | --- | --- |
| C[C@]12CC[C@@H]3c4ccc(O)cc4CC[C@H]3[C@@H]1CC[C@@H]2O [E2, 17β-Estradiol] | equivalent to those obtained with vector control cells | highest | increased the number of colonies | – |
| CC/C(=C(\c1ccccc1)c1ccc(OCCN(C)C)cc1)c1ccccc1 [Tam, tamoxifen] | – | lowest | reduced the number of colonies | ~20 fold |
